ChEMBL document CHEMBL4190384, “Design, synthesis and biological evaluation of substituted (+)-SG-1 derivatives as novel anti-HIV agents” (Bioorg Med Chem Lett, 2018)

Experiments:
[1] = tested on: Human immunodeficiency virus 1; experiment: (§1) Antiviral activity against HIV1 virions derived from HIV/[…] or HIV/HA virions infected 293T cells using human A549 cells as target cells assessed as inhibition of viral replication using compound pre-mixed virions followed by incubation with target cells for 24 hrs by luciferase reporter gene assay based defective HIV1 pseudoviral assay; type: functional, organism-based; details: Human immunodeficiency virus 1, 24 h
A549 = experiment: Cytotoxicity against human A549 cells at 10 uM after 48 hrs by CellTiter 96 AQueous one solution cell proliferation assay; type: cell-based; details: a549, 48 h
[2] = tested on: Human immunodeficiency virus 1; experiment: (§2) Resistance index, ratio of IC50 for antiviral activity against HIV1 virions containing reverse transcriptase Y181C mutant derived from HIV/[…] or HIV/HA virions infected 293T cells using human A549 cells as target cells to IC50 for antiviral activity against wild type HIV1 virions derived from HIV/[…] or HIV/HA virions infected 293T cells using human A549 cells as target cells; type: functional
[3] = tested on: Human immunodeficiency virus 1; experiment: as §1, with “HIV1 virions containing reverse transcriptase E138K/M184V mutant derived from” for “HIV1 virions derived from”; type: functional, organism-based; details: Human immunodeficiency virus 1, 24 h
[4] = tested on: Human immunodeficiency virus 1; experiment: as §2, with “E138K/M184V” for “Y181C”; type: functional
[5] = tested on: Human immunodeficiency virus 1; experiment: as §1, with “HIV1 virions containing reverse transcriptase K103N mutant derived from” for “HIV1 virions derived from”; type: functional, organism-based; details: Human immunodeficiency virus 1, 24 h
[6] = tested on: Human immunodeficiency virus 1; experiment: as §2, with “K103N” for “Y181C”; type: functional
[7] = tested on: Human immunodeficiency virus 1; experiment: as §1, with “HIV1 virions containing reverse transcriptase Y181C mutant derived from” for “HIV1 virions derived from”; type: functional, organism-based; details: Human immunodeficiency virus 1, 24 h
[8] = tested on: Human immunodeficiency virus 1; experiment: Antiviral activity against human HIV1 by VSV-G/HIV1 infection assay; type: functional, organism-based

Structure (SMILES)	IC50 [1] [nM]	Activity (A549)	Ratio IC50 [2]	IC50 [3] [nM]	Ratio IC50 [4]	IC50 [5] [nM]	Ratio IC50 [6]	IC50 [7] [nM]	IC50 [8] [nM]
CCCC1CCc2cc(OC)c(OC)cc2N1c1cc(OC)c(OC)c(OC)c1 (racemic)	1280	Non-Toxic	–	–	–	–	–	–	–
COc1cc2c(cc1OC)N(c1cc(OC)c(OC)c(OC)c1)C(C)CC2 (racemic)	940	Non-Toxic	>10.6	8530	9.1	1400	1.5	> 10000	–
CCC1CCc2cc(OC)c(OC)cc2N1c1cc(OC)c(OC)c(OC)c1 (racemic)	720	Non-Toxic	–	–	–	–	–	–	–
COc1ccc([C@H]2c3cc(OC)c(OC)cc3C[C@H](C)[C@@H]2C)cc1OC	860	Non-Toxic	>11.6	4020	4.7	1380	1.6	> 10000	1070
COc1ccc([C@H]2c3cc(OC)c(OC)cc3C[C@@H]2C)cc1OC	4420	Non-Toxic	–	–	–	–	–	–	–
COc1cc(CCC(=O)N2C(=O)OC[C@@H]2Cc2ccccc2)cc(OC)c1OC	> 10000	Non-Toxic	–	–	–	–	–	–	–
CO/N=C(\c1ccc(OC)c(OC)c1)c1cc(OC)c(OC)c(OC)c1	> 10000	Non-Toxic	–	–	–	–	–	–	–
COc1cc2c(cc1OC)C(c1cc(OC)c(OC)c(OC)c1)CCC2 (racemic)	6710	Non-Toxic	–	–	–	–	–	–	–
Cc1ccnc2c1NC(=O)c1cccnc1N2C1CC1 [NEVIRAPINE]	13	–	220	22	1.7	910	70	2860	–
COc1ccc([C@@H]2c3cc(OC)c(OC)cc3C[C@H](C)[C@H]2C)cc1OC	> 10000	Non-Toxic	–	–	–	–	–	–	–
COc1cc2c(cc1OC)N(c1cc(OC)c(OC)c(OC)c1)C(=O)CC2	> 10000	Non-Toxic	–	–	–	–	–	–	–
Nc1ccn([C@@H]2CS[C@H](CO)O2)c(=O)n1 [LAMIVUDINE]	510	–	–	> 10000	>19.6	–	–	–	–
COc1ccc(/C(=N/O)c2cc(OC)c(OC)c(OC)c2)cc1OC	> 10000	Non-Toxic	–	–	–	–	–	–	–
COc1cc2c(cc1OC)N(c1cc(OC)c(OC)c(OC)c1)CCC2	4960	Non-Toxic	–	–	–	–	–	–	–
COc1cc([C@H]2c3c(cc(OC)c(OC)c3OC)C[C@H](C)[C@@H]2C)cc(OC)c1OC	690	Non-Toxic	>14.5	5910	8.6	760	1.1	> 10000	–
COc1cc2c(cc1OC)[C@H](c1cc(OC)c(OC)c(OC)c1)[C@@H](C)C2	340	Non-Toxic	–	–	–	–	–	–	–
COc1cc2c(cc1OC)[C@H](c1cc(OC)c(OC)c(OC)c1)[C@@H](C)[C@@H](C)C2	160	Non-Toxic	67.5	1380	8.6	180	1.1	10800	–
COc1cc2c(cc1OC)[C@@H](c1cc(OC)c(OC)c(OC)c1)[C@H](C)CC2	1020	Non-Toxic	>9.8	7130	7	1730	1.7	> 10000	–
COc1cc2c(cc1OC)[C@@H](c1cc(OC)c(OC)c(OC)c1)[C@H](C)[C@@H](C)C2	> 10000	Non-Toxic	–	–	–	–	–	–	–
COc1ccc(C(=O)c2cc(OC)c(OC)c(OC)c2)cc1OC	> 10000	Non-Toxic	–	–	–	–	–	–	–
COc1cc2c(cc1OC)[C@H](c1cc(OC)c(OC)c(OC)c1)[C@@H](C)CC2	90	Non-Toxic	>111	180	2	150	1.7	> 10000	–
COc1cc2c(cc1OC)[C@@H](c1ccc3c(c1)OCO3)[C@H](C)[C@@H](C)C2	> 10000	Non-Toxic	–	–	–	–	–	–	–
